Test results: US20230212138A1, “PHD INHIBITOR COMPOUNDS, COMPOSITIONS, AND THEIR USE” (Akebia Therapeutics, Inc., priority 2020, published 2023)

Key:
Type in all cases: biochemical
[1] = biological target: T1, full-length human PHD1 (Homo sapiens, UniProt Q96KS0); test: TR-FRET assay, PHD1 enzymatic IC50; conditions: 15 nM PHD1, 1 μM 2-OG
T1 construct: expressed in a baculovirus expression system as the full-length protein; FLAG (N); purchased Active Motif 81064; host or cells: baculovirus expression system
Text: (§1) In the presence of 2-oxoglutarate and O2, PHD enzyme hydroxylates proline 564 of biotin-tagged HIF-1α peptide resulting in generation of biotin-tagged HIF-1α-hydroxyproline, succinate and CO2. The resulting proximity of the donor fluorophore complex, monoclonal antibody anti-6His-Terbium (Tb)-cryptate Gold, bound to the His-tagged VHL protein, EloB, EloC complex (His-VBC) and the acceptor fluorophore, SA-D2 complex, bound to HIF-1α-hydroxyproline results in a fluorescence resonance energy transfer signal that can be detected and quantified
(§2) Time-resolved fluorescence resonance energy transfer (TR-FRET) assay was utilized to determine the enzymatic half maximal inhibitory concentration (IC50) value of PHD inhibitors against the full-length human prolyl-4-hydroxylase domain (PHD) enzymes, PHD1, PHD2, and PHD3. The TR-FRET assay was developed based on the specific binding of hydroxylated HIF-1α peptide with the complex formed by VHL, EloB and EloC (VBC), to generate a fluorescent signal. Terbium (Tb)-Donor (monoclonal antibody anti-6His-Tb-cryptate Gold) and D2-acceptor (streptavidin [SA]-D2) of TR-FRET are linked to the VBC complex and to HIF-1α peptide, respectively. The VBC complex binds specifically to the HIF-1α peptide when it is hydroxylated, allowing energy transfer from TR-FRET donor to acceptor (FIG. 1).
Recombinant human PHD1 protein (catalog #81064, Lot #24717001) was purchased from Active Motif (Carlsbad, Calif., USA). PHD1 was expressed in a baculovirus expression system as the full-length protein (NCBI accession number NP_542770.2) with an N-terminal FLAG tag (molecular weight 44.9 kDa). Purity (>90%) was assessed by SDS-PAGE.
(§3) PHD inhibitor compound was preincubated with PHD enzyme in a 10 μL reaction volume in white 384-well Optiplate microplates (catalog #6007290, Perkin Elmer, Waltham, Mass., USA). For this, 5 μL PHD inhibitor compound was serially diluted with dilution buffer (50 mM HEPES [4-(2-hydroxyethyl)-1-piperazineethanesulfonic acid] pH 7.5, 50 mM sodium chloride [NaCl], 0.01% Tween-20, 0.01% purified bovine serum albumin [BSA]) and mixed with 5 μL PHD enzyme mix prepared as a 4× concentrate in the dilution buffer containing PHD enzyme (60 nM PHD1, 20 nM PHD2, 140 nM PHD3), 40 μM ferrous ammonium sulfate (FAS), 4 mM sodium (Na) ascorbate. The plates were incubated for 30 minutes at room temperature without rotation.
(§4) Five microliters of the VBC/anti-6His-Tb-cryptate Gold mix prepared as a 4×concentrate in dilution buffer containing 20 nM His-VBC, 1.32 nM monoclonal antibody anti-6His-Tb-cryptate Gold was then added. This step was followed immediately by the addition of 5 μL of the HIF-1α C35 substrate mix prepared as a 4×concentrate in the dilution buffer containing 120 nM biotin-labeled HIF-1α C35, 132 nM SA-D2, 4 μM 2-oxoglutarate (2-OG) to reach a final reaction volume of 20 μL.
(§5) The final assay reaction contained 50 mM HEPES, pH 7.5, 50 mM NaCl, 1 μM 2-OG, 10 μM FAS, 1 mM Na ascorbate, 0.01% Tween-20, 0.01% purified BSA, 30 nM biotin-labeled HIF-1α C35, 5 nM His-VBC, 0.33 nM monoclonal antibody anti-6His-Tb-cryptate Gold, 33 nM SA-D2 and PHD enzyme (15 nM PHD1, 5 nM PHD2, or 35 nM PHD3) with the diluted compound.
(§6) For the measurement of the IC50 of PHD inhibitor compound, reactions were incubated for 10 minutes at room temperature and then read on a Perkin Elmer EnVision (Waltham, Mass., USA) at an excitation wavelength of 340 nm and at emission wavelengths of 615 nm and 665 nm. The data represent the quotient of the signal intensity at 665 nm and 615 nm, automatically calculated by Envision Manager software (Perkin Elmer, Waltham, Mass., USA). The IC50 values (mean, standard deviation, standard error of the mean, geometric mean and 95% confidence interval) were determined using a four-parameter curve-fit using GraphPad Prism 7.0 (GraphPad, La Jolla, Calif., USA) and represent the compound concentration plotted against the calculated ratio of 665 nm and 615 nm. […]

[2] = biological target: T2, full-length human PHD3 (Homo sapiens, UniProt Q9H6Z9); test: TR-FRET assay, PHD3 enzymatic IC50; conditions: 35 nM PHD3, 1 μM 2-OG
T2 construct: It was expressed in E. coli as the full-length protein; 6-His (N); purchased Active Motif 81033; host or cells: E. coli
Text: as §1, §2
Recombinant human PHD3 protein (molecular weight 31.1 kDa) was purchased from Active Motif (Carlsbad, Calif., USA). It was expressed in E. coli as the full-length protein (NCBI accession number NP_071356.1) with an N-terminal 6-His tag (catalog #81033, Lot #24417001).
as §3, §4, §5, §6

[3] = biological target: T3, full-length human PHD2 (Homo sapiens, UniProt Q9GZT9); test: TR-FRET assay, PHD2 enzymatic IC50; conditions: 5 nM PHD2, 1 μM 2-OG
T3 construct: The PHD2 construct contained amino acids 1 to 426 of PHD2; His tag (N, cleaved yes); TEV protease cleavage site (N, cleaved yes); host or cells: Sf9 insect cells (baculovirus)
Text: as §1, §2
The full-length human PHD2 enzyme was produced with a baculovirus infected insect cell (BIIC) expression system by Beryllium (Bedford, Mass., USA). The PHD2 construct contained amino acids 1 to 426 of PHD2 (UniProt Knowledgebase[UniProtKB]/Swiss-Prot accession number Q9GZT9.1), and a His tag and a Tobacco Etch Virus (TEV) protease cleavage site at the N-terminus. The construct was expressed in Sf9 insect cells, purified by Ni-NTA column and digested with TEV protease to remove the His tag.
as §3, §4, §5
For the measurement of the IC50 of PHD inhibitor compound, reactions were incubated for 10 minutes at room temperature and then read on a Perkin Elmer EnVision (Waltham, Mass., USA) at an excitation wavelength of 340 nm and at emission wavelengths of 615 nm and 665 nm. The data represent the quotient of the signal intensity at 665 nm and 615 nm, automatically calculated by Envision Manager software (Perkin Elmer, Waltham, Mass., USA). […]

T2 sequence (Q9H6Z9 whole entry): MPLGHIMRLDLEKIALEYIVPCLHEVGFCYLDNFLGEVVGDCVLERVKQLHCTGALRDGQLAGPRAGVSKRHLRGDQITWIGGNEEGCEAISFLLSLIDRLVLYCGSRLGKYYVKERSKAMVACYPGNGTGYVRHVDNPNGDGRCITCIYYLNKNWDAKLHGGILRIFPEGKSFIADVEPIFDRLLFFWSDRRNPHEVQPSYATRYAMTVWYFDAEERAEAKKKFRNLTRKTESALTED
T3 sequence (Q9GZT9 whole entry, the tested form may be a part): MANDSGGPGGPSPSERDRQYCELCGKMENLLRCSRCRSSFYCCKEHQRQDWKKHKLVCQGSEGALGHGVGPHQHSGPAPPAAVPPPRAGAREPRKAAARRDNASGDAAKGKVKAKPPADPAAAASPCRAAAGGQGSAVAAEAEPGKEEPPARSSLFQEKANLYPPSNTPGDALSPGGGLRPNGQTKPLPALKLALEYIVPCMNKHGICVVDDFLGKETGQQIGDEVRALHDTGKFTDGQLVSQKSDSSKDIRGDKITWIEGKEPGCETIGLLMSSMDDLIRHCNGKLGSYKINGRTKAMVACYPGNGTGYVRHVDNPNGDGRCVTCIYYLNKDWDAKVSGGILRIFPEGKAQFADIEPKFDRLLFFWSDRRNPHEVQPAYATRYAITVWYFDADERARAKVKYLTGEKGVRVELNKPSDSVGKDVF
T1 sequence (Q96KS0 whole entry): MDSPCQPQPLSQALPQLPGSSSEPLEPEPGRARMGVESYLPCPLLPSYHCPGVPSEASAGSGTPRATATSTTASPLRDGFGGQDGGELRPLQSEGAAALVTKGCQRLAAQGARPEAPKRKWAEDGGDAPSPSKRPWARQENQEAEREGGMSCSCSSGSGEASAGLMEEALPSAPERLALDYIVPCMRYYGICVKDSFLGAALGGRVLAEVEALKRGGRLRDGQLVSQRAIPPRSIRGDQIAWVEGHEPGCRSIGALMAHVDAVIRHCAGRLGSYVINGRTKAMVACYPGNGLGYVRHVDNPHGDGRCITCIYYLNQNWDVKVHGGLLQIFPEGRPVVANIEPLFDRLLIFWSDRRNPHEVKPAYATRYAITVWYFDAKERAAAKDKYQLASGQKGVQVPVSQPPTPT

Structure (SMILES) | IC50 [1] | IC50 [2] | IC50 [3]
CCC(=O)c1ccc(-n2ncc(-c3ccc(C#N)cc3)c2O)nc1 [Compound 2, 4-(5-hydroxy-1-(5-propionylpyridin-2-yl)-1H-pyrazol-4-yl)benzonitrile] | < 100 nM | < 100 nM | < 100 nM
COc1cc(-c2cnn(-c3ccc(S(C)(=O)=O)cn3)c2O)ccn1 [Compound 8, 4-(2-methoxypyridin-4-yl)-1-(5-(methylsulfonyl)pyridin-2-yl)-1H-pyrazol-5-ol] | < 100 nM | 100 to 1000 nM | < 100 nM
CS(=O)(=O)Nc1ccc(-n2ncc(-c3ccc(C#N)cc3)c2O)nc1 [Compound 24, N-(6-(4-(4-cyanophenyl)-5-hydroxy-1H-pyrazol-1-yl)pyridin-3-yl)methanesulfonamide] | < 100 nM | < 100 nM | < 100 nM
CC(C)C(=O)c1ccc(-n2ncc(-c3ccc(C#N)cc3)c2O)nc1 [Compound 3, 4-(5-hydroxy-1-(5-isobutyrylpyridin-2-yl)-1H-pyrazol-4-yl)benzonitrile] | < 100 nM | < 100 nM | < 100 nM
CCC(=O)Nc1ccc(-n2ncc(-c3ccc(C#N)cc3)c2O)nc1 [Compound 23, N-(6-(4-(4-cyanophenyl)-5-hydroxy-1H-pyrazol-1-yl)pyridin-3-yl)propionamide] | < 100 nM | < 100 nM | < 100 nM
N#Cc1ccc(-c2cnn(-c3ccc(F)cn3)c2O)cc1 [Compound 17, 4-(1-(5-fluoropyridin-2-yl)-5-hydroxy-1H-pyrazol-4-yl)benzonitrile] | < 100 nM | 100 to 1000 nM | < 100 nM
N#Cc1ccc(-c2cnn(-c3ccc(-c4ncco4)cn3)c2O)cc1 [Compound 11, 4-(5-hydroxy-1-(5-(oxazol-2-yl)pyridin-2-yl)-1H-pyrazol-4-yl)benzonitrile] | < 100 nM | 100 to 1000 nM | < 100 nM
CS(=O)(=O)c1ccc(-n2ncc(-c3ccc(C#N)cc3)c2O)nc1 [Compound 4, 4-(5-hydroxy-1-(5-(methylsulfonyl)pyridin-2-yl)-1H-pyrazol-4-yl)benzonitrile] | < 100 nM | < 100 nM | < 100 nM
N#Cc1ccc(-c2cnn(-c3ccc(-n4cccn4)cn3)c2O)cc1 [Compound 10, 4-(1-(5-(1H-pyrazol-1-yl)pyridin-2-yl)-5-hydroxy-1H-pyrazol-4-yl)benzonitrile] | < 100 nM | 100 to 1000 nM | < 100 nM
CCS(=O)(=O)Nc1ccc(-n2ncc(-c3ccc(C#N)cc3)c2O)nc1 [Compound 25, N-(6-(4-(4-cyanophenyl)-5-hydroxy-1H-pyrazol-1-yl)pyridin-3-yl)ethanesulfonamide] | < 100 nM | < 100 nM | < 100 nM
N#Cc1ccc(-c2cnn(-c3ccc(N4CCCC4=O)cn3)c2O)cc1 [Compound 15, 4-(5-hydroxy-1-(5-(2-oxopyrrolidin-1-yl)pyridin-2-yl)-1H-pyrazol-4-yl)benzonitrile] | < 100 nM | < 100 nM | < 100 nM
